Assay results reported in patent US8486863B2, “Activators of lateral root formation” (VIB VZW, priority 2006, dated 2013).

How the values were obtained:
auxin signaling mutants [1] = experiment: Effect of activators on lateral root density of auxin signaling mutants (Table 2); type: in vivo, Arabidopsis thaliana
Description: (§1) Afb1, Afb2, Afb3 and the triple mutant Tirlafb2afb3 were described by Dhamasiri et al. (2005). Tir1 was described by Ruegger et al., (1998); 1aa28 by Rogg et al., (2001); Tir7-1 by Ruegger et al., (1997); the Cyp79b2b3 double mutant by Ljung et al. (2005); the arf7arf19 double mutant by Fukaki et al., (2005); Aux1 by Bennett et al., (1996); Xbat32 by Nodzon et al., (2004), Axr1-12 by Timpte et al., (1995), Slr1 by Fukaki et al., 2002 and Axr3-1 by Collet et al., (2000) and the mutants were obtained from the publishing authors.
(§2) For phenotypic analysis, all mutants were grown on vertically oriented square plates (Greiner Labortechnik, Austria) with solid medium derived from standard MS medium. The plates were put in a growth chamber under continuous light (110 μE.m2.s1 photosynthetically active radiation, supplied by cool-white fluorescent tungsten tubes; Osram) at 22° C. Three days after germination, the mutant plants were transferred to medium supplemented with compounds and were left to grow for another 7 days. After this, root length and number of lateral roots were counted using ImageJ 1.34 freeware.

auxin signaling mutants [2] = experiment: Effect of A12 and NAA on lateral root density and root length of auxin signaling mutants (Table 1); type: in vivo, Arabidopsis thaliana; set-up: Root length: unit not given here
Description: as §1, §2
DMSO is used as negative control.

[3] = tested on: Wild-type Arabidopsis thaliana; experiment: Dose-response analysis of lateral root density and root length; type: in vivo
Description: FIG. 3: Dose-response analysis of class 1 (upper panel) and class 2 (lower panel) activators. Wild-type Arabidopsis thaliana seeds were germinated under standard conditions on agar plates. After 3 days of germination, seedlings were transferred to agar plates containing compound at different concentrations. Lateral root density was measured 10 days after germination. Bars represent standard errors.
FIG. 4: Dose-response analysis of A2, A11, A12, A14 and NAA. Wild-type Arabidopsis thaliana seeds were germinated under standard conditions on agar plates. After 3 days of germination, seedlings were transferred to agar plates containing compound at different concentrations and 1% DMSO. Plants transferred to agar plates containing 1% DMSO and no compound were used as controls. Lateral root density (left panels) and root length (right panels) were measured 10 days after germination. Bars represent standard errors.
For further phenotypic analysis, all plants were grown on vertically oriented square plates (Greiner Labortechnik, Austria) with solid medium derived from standard MS medium under the same conditions. 3 DAG plants were transferred to medium supplemented with compounds and were left to grow for another 7 days. After this, root length and number of LRs were counted using ImageJ 1.34 freeware.
As a subsequent step, the phenotypic effect of the 16 selected activators was determined in a dose-response analysis in which LR density (number of LRs per cm) was quantified (FIG. 3). Based upon potency and structure, two different classes of activators could be identified.

[4] = cyp79b2-3 DM (double mutant), 3 uM
[5] = tir TM (Tir1afb2afb3 triple mutant), 3 uM
[6] = arf7arf19 DM (double mutant), 30 uM
[7] = cyp79b2-3 DM (double mutant), 30 uM
[8] = tir TM (Tir1afb2afb3 triple mutant), 30 uM

## O=C(O)Cc1cccc2ccccc12 [NAA, 1-naphthylacetic acid, reference compound]
Auxin signaling mutants [1]; Afb1-1, 0.1 uM
  lateral root density: 13.49 LR/cm
Auxin signaling mutants [1]; Afb1-1, 0.3 uM
  lateral root density: 8.76 LR/cm
Auxin signaling mutants [1]; Afb1-1, 1 uM
  lateral root density: 21.43 LR/cm
Auxin signaling mutants [1]; Afb1-1, 3 uM
  lateral root density: 47.81 LR/cm
Auxin signaling mutants [1]; Afb2-1, 0.1 uM
  lateral root density: 14.57 LR/cm
Auxin signaling mutants [1]; Afb2-1, 0.3 uM
  lateral root density: 8.98 LR/cm
Auxin signaling mutants [1]; Afb2-1, 1 uM
  lateral root density: 28.72 LR/cm
Auxin signaling mutants [1]; Afb2-1, 3 uM
  lateral root density: 59.72 LR/cm
Auxin signaling mutants [1]; Afb3-1, 0.1 uM
  lateral root density: 15.27 LR/cm
Auxin signaling mutants [1]; Afb3-1, 0.3 uM
  lateral root density: 8.93 LR/cm
Auxin signaling mutants [1]; Afb3-1, 1 uM
  lateral root density: 27.72 LR/cm
Auxin signaling mutants [1]; Afb3-1, 3 uM
  lateral root density: 55.01 LR/cm
Auxin signaling mutants [1]; Arf7Arf19, 0.1 uM
  lateral root density: 0.00 LR/cm
Auxin signaling mutants [1]; Arf7Arf19, 0.3 uM
  lateral root density: 0.00 LR/cm
Auxin signaling mutants [1]; Arf7Arf19, 1 uM
  lateral root density: 0.17 LR/cm
Auxin signaling mutants [1]; Arf7Arf19, 3 uM
  lateral root density: 13.18 LR/cm
Auxin signaling mutants [1]; Arf16, 0.1 uM
  lateral root density: 8.05 LR/cm
Auxin signaling mutants [1]; Arf16, 0.3 uM
  lateral root density: 6.63 LR/cm
Auxin signaling mutants [1]; Arf16, 1 uM
  lateral root density: 10.83 LR/cm
Auxin signaling mutants [1]; Arf16, 3 uM
  lateral root density: 17.17 LR/cm
Auxin signaling mutants [1]; Arf17, 0.1 uM
  lateral root density: 6.57 LR/cm
Auxin signaling mutants [1]; Arf17, 0.3 uM
  lateral root density: 10.34 LR/cm
Auxin signaling mutants [1]; Arf17, 1 uM
  lateral root density: 0.47 LR/cm
Auxin signaling mutants [1]; Arf17, 3 uM
  lateral root density: 24.68 LR/cm
Auxin signaling mutants [1]; Axrt-12, 0.1 uM
  lateral root density: 8.04 LR/cm
Auxin signaling mutants [1]; Axrt-12, 0.3 uM
  lateral root density: 9.25 LR/cm
Auxin signaling mutants [1]; Axrt-12, 1 uM
  lateral root density: 9.03 LR/cm
Auxin signaling mutants [1]; Axrt-12, 3 uM
  lateral root density: 27.55 LR/cm
Auxin signaling mutants [1]; Cyp79, 0.1 uM
  lateral root density: 15.83 LR/cm
Auxin signaling mutants [1]; Cyp79, 0.3 uM
  lateral root density: 6.85 LR/cm
Auxin signaling mutants [1]; Cyp79, 1 uM
  lateral root density: 22.20 LR/cm
Auxin signaling mutants [1]; Cyp79, 3 uM
  lateral root density: 50.78 LR/cm
Auxin signaling mutants [1]; Iaa28-1, 0.1 uM
  lateral root density: 3.57 LR/cm
Auxin signaling mutants [1]; Iaa28-1, 0.3 uM
  lateral root density: 7.46 LR/cm
Auxin signaling mutants [1]; Iaa28-1, 1 uM
  lateral root density: 11.92 LR/cm
Auxin signaling mutants [1]; Iaa28-1, 3 uM
  lateral root density: 40.09 LR/cm
Auxin signaling mutants [1]; Tir1-1, 0.1 uM
  lateral root density: 5.14 LR/cm
Auxin signaling mutants [1]; Tir1-1, 0.3 uM
  lateral root density: 11.34 LR/cm
Auxin signaling mutants [1]; Tir1-1, 1 uM
  lateral root density: 6.74 LR/cm
Auxin signaling mutants [1]; Tir1-1, 3 uM
  lateral root density: 18.30 LR/cm
Auxin signaling mutants [1]; Tir7-1, 0.1 uM
  lateral root density: 15.76 LR/cm
Auxin signaling mutants [1]; Tir7-1, 0.3 uM
  lateral root density: 5.78 LR/cm
Auxin signaling mutants [1]; Tir7-1, 1 uM
  lateral root density: 14.79 LR/cm
Auxin signaling mutants [1]; Tir7-1, 3 uM
  lateral root density: 46.33 LR/cm
Auxin signaling mutants [1]; TirTM, 0.1 uM
  lateral root density: 8.04 LR/cm
Auxin signaling mutants [1]; TirTM, 0.3 uM
  lateral root density: 18.89 LR/cm
Auxin signaling mutants [1]; TirTM, 1 uM
  lateral root density: 15.81 LR/cm
Auxin signaling mutants [1]; TirTM, 3 uM
  lateral root density: 45.09 LR/cm
Auxin signaling mutants [1]; Xbat32, 0.1 uM
  lateral root density: 4.27 LR/cm
Auxin signaling mutants [1]; Xbat32, 0.3 uM
  lateral root density: 9.26 LR/cm
Auxin signaling mutants [1]; Xbat32, 1 uM
  lateral root density: 12.70 LR/cm
Auxin signaling mutants [1]; Xbat32, 3 uM
  lateral root density: 33.67 LR/cm
Auxin signaling mutants [2]; CDKB DN, 3 uM
  Root length: 0.42
Auxin signaling mutants [2]; Col-0, 3 uM
  LR density: 52.98
  Root length: 1.08
Auxin signaling mutants [2]; Ws, 3 uM
  LR density: 45.59
  Root length: 0.87
Auxin signaling mutants [2]; Xbat32, 3 uM
  LR density: 36.83
  Root length: 1.33
Auxin signaling mutants [2]; afb1-1, 3 uM
  LR density: 51.36
  Root length: 0.93
Auxin signaling mutants [2]; afb2-1, 3 uM
  LR density: 51.08
  Root length: 0.87
Auxin signaling mutants [2]; afb3-1, 3 uM
  LR density: 46.76
  Root length: 0.94
Auxin signaling mutants [2]; arf7arf19 DM (double mutant), 3 uM
  Root length: 0.87
Auxin signaling mutants [2]; aux1, 3 uM
  Root length: 0.93
Auxin signaling mutants [2]; axr1-12, 3 uM
  LR density: 40.22
  Root length: 1.12
Auxin signaling mutants [2]; axr5-1, 3 uM
  LR density: 27.56
  Root length: 1.27
Auxin signaling mutants [2]; [4]
  LR density: 37.27
  Root length: 1.43
Auxin signaling mutants [2]; iaa28-1, 3 uM
  LR density: 48.10
  Root length: 0.86
Auxin signaling mutants [2]; lax3, 3 uM
  LR density: 63.09
  Root length: 1.02
Auxin signaling mutants [2]; msg2-1, 3 uM
  LR density: 37.22
  Root length: 1.13
Auxin signaling mutants [2]; slr-1, 3 uM
  LR density: 0.00
  Root length: 0.84
Auxin signaling mutants [2]; tir1-1, 3 uM
  LR density: 57.73
  Root length: 0.99
Auxin signaling mutants [2]; tir7-1, 3 uM
  LR density: 41.72
  Root length: 0.87
Auxin signaling mutants [2]; [5]
  LR density: 47.00
  Root length: 0.80
[3]; FIG. 4
  LR density response to increasing compound concentration: threshold-like mechanism
[3]; FIG. 4, 10 days after germination
  compound concentration that increased root density five times compared to controls: 1.5 µM
[3]; at the concentration that increased root density five times (20 μM A11, 1.5 μM NAA)
  Root length: 0.2 times the root length of controls

## NC(=S)NN=Cc1ccc(-c2cccc(C(F)(F)F)c2)o1 [A12, 5-[3-(trifluoromethyl)phenyl]-2-furaldehyde thiosemicarbazone]
Auxin signaling mutants [1]; Afb1-1, 30 uM
  lateral root density: 23.19 LR/cm
Auxin signaling mutants [1]; Afb2-1, 30 uM
  lateral root density: 10.44 LR/cm
Auxin signaling mutants [1]; Afb3-1, 30 uM
  lateral root density: 21.05 LR/cm
Auxin signaling mutants [1]; Arf7Arf19, 30 uM
  lateral root density: 0.94 LR/cm
Auxin signaling mutants [1]; Arf16, 30 uM
  lateral root density: 10.94 LR/cm
Auxin signaling mutants [1]; Arf17, 30 uM
  lateral root density: 15.09 LR/cm
Auxin signaling mutants [1]; Axrt-12, 30 uM
  lateral root density: 14.15 LR/cm
Auxin signaling mutants [1]; Cyp79, 30 uM
  lateral root density: 22.76 LR/cm
Auxin signaling mutants [1]; Iaa28-1, 30 uM
  lateral root density: 10.00 LR/cm
Auxin signaling mutants [1]; Tir7-1, 30 uM
  lateral root density: 27.42 LR/cm
Auxin signaling mutants [1]; TirTM, 30 uM
  lateral root density: 0.00 LR/cm
Auxin signaling mutants [2]; CDKB DN, 30 uM
  LR density: 9.09
  Root length: 1.56
Auxin signaling mutants [2]; Col-0, 30 uM
  Root length: 2.24
Auxin signaling mutants [2]; Ws, 30 uM
  LR density: 16.70
  Root length: 1.92
Auxin signaling mutants [2]; Xbat32, 30 uM
  LR density: 14.16
  Root length: 2.44
Auxin signaling mutants [2]; afb1-1, 30 uM
  LR density: 15.55
  Root length: 1.86
Auxin signaling mutants [2]; afb2-1, 30 uM
  LR density: 15.11
  Root length: 1.71
Auxin signaling mutants [2]; afb3-1, 30 uM
  LR density: 21.32
  Root length: 2.17
Auxin signaling mutants [2]; [6]
  LR density: 1.73
  Root length: 3.45
Auxin signaling mutants [2]; aux1, 30 uM
  LR density: 15.94
  Root length: 2.24
Auxin signaling mutants [2]; axr1-12, 30 uM
  LR density: 15.84
  Root length: 1.62
Auxin signaling mutants [2]; axr5-1, 30 uM
  LR density: 14.10
  Root length: 3.40
Auxin signaling mutants [2]; [7]
  LR density: 17.30
  Root length: 2.26
Auxin signaling mutants [2]; iaa28-1, 30 uM
  LR density: 8.85
  Root length: 3.39
Auxin signaling mutants [2]; lax3, 30 uM
  LR density: 15.27
  Root length: 2.48
Auxin signaling mutants [2]; msg2-1, 30 uM
  LR density: 27.49
  Root length: 1.58
Auxin signaling mutants [2]; slr-1, 30 uM
  LR density: 0.00
  Root length: 1.90
Auxin signaling mutants [2]; tir1-1, 30 uM
  LR density: 13.38
  Root length: 2.34
Auxin signaling mutants [2]; tir7-1, 30 uM
  LR density: 17.30
  Root length: 1.52
Auxin signaling mutants [2]; [8]
  LR density: 4.82
  Root length: 2.60
[3]; dose-response, FIG. 3
  potency as activator of LR development (LR density): most potent activators of class 2
